Activity calls are given as the source filed them.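 How the source made its calls: active means curve reaches 40% rise within the top valid dose, in every run; inconclusive means runs give conflicting calls; inactive means opposite-direction activity, or every run inactive.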
Assay: ATP change in C2C12 myotubes without statin, dose response, counter-screen for statin myotoxicity suppressor project, cell-based, no simvastatin, luminescence, dry powder (AID 743334)
Conditions: C2C12 myotubes ATP, CellTiter-Glo luminescence, 48 h; at 19.5 µM (top of the series)
In the case of C[C@H]1CN([C@@H](C)CO)C(=O)c2cc(N(C)C)ccc2O[C@@H]1CN(C)Cc1ccc(C(=O)Nc2ccccc2N)cc1, the ATP level change, positive = increase is reported as 3.03% (inactive).
With COc1ccc(S(=O)(=O)Nc2cccc3c2O[C@H](CN(C)C(=O)Nc2ccc(F)cc2)[C@H](C)CN([C@@H](C)CO)C3=O)cc1 the ATP level change, positive = increase was 14.4% (inactive).
For Cc1ccc(S(=O)(=O)Nc2ccc3c(c2)CC(=O)N([C@@H](C)CO)C[C@@H](C)[C@H](CN(C)Cc2ccc(-c4ccccc4)cc2)O3)cc1, the ATP level change, positive = increase was -0.559% (inactive).
For Cc1noc(C)c1S(=O)(=O)Nc1ccc2c(c1)CC(=O)N([C@H](C)CO)C[C@H](C)[C@@H](CN(C)Cc1ccc(C(F)(F)F)cc1)O2, the ATP level change, positive = increase was 10.6% (inactive).
In the case of C[C@@H]1CN([C@H](C)CO)C(=O)Cc2cc(NS(=O)(=O)c3ccc(Cl)cc3)ccc2O[C@H]1CN(C)Cc1ccccc1, the ATP level change, positive = increase is reported as 13% (inactive).
With Cc1ccc(S(=O)(=O)N(C)C[C@@H]2Oc3ccc(NS(=O)(=O)c4ccc(Cl)cc4)cc3C(=O)N([C@H](C)CO)C[C@@H]2C)cc1 the ATP level change, positive = increase was -0.772% (inactive).
For C[C@@H]1CN([C@@H](C)CO)C(=O)c2cc(NS(=O)(=O)c3ccc(Cl)cc3)ccc2O[C@H]1CN(C)C(=O)Nc1cccc2ccccc12, the ATP level change, positive = increase was 6.56% (inactive).
With C[C@H](CO)N1C[C@H](C)[C@@H](CN(C)Cc2ccc(Oc3ccccc3)cc2)Oc2c(NC(=O)Nc3cccc4ccccc34)cccc2C1=O the ATP level change, positive = increase was 8.68% (inactive).
For C[C@@H]1CN([C@@H](C)CO)C(=O)c2cccc(NC(=O)Nc3ccc4c(c3)OCO4)c2O[C@H]1CN(C)Cc1ccc(C(=O)Nc2ccccc2N)cc1, the ATP level change, positive = increase was 16.4% (inactive).
In the case of C[C@@H]1CN([C@H](C)CO)C(=O)Cc2cc(NS(=O)(=O)c3cn(C)cn3)ccc2O[C@@H]1CN(C)Cc1ccc(Cl)c(Cl)c1, the ATP level change, positive = increase is reported as 9.79% (inactive).
In the case of C[C@@H]1CN([C@H](C)CO)C(=O)Cc2cc(NC(=O)C3CCCCC3)ccc2O[C@H]1CN(C)Cc1ccc(Cl)c(Cl)c1, the ATP level change, positive = increase is reported as 15.1% (inactive).
For C[C@H]1CN([C@@H](C)CO)S(=O)(=O)c2ccc(C#Cc3ccc(F)cc3)cc2O[C@@H]1CN(C)S(=O)(=O)c1cn(C)cn1, the ATP level change, positive = increase was 6.04% (inactive).

Same assay, conditions: C2C12 myotubes ATP, CellTiter-Glo luminescence, 48 h; at 21 µM (top of the series)
In the case of CC(C)CC#Cc1cnc2c(c1)C(=O)N([C@H](C)CO)C[C@H](C)[C@@H](CN(C)C(=O)Cc1ccccc1)O2, the ATP level change, positive = increase is reported as 6.23% (inactive).
In the case of C[C@H]1CN([C@@H](C)CO)C(=O)Cc2cc(NC(=O)CCCCCC(=O)Nc3ccccc3N)ccc2O[C@H]1CN(C)Cc1ccc(C(F)(F)F)cc1, the ATP level change, positive = increase is reported as 5.44% (inactive).
For Cc1noc(C)c1S(=O)(=O)Nc1ccc2c(c1)CC(=O)N([C@H](C)CO)C[C@@H](C)[C@@H](CN(C)Cc1ccc(-c3ccccc3)cc1)O2, the ATP level change, positive = increase was 10.4% (inactive).

Same assay, conditions: C2C12 myotubes ATP, CellTiter-Glo luminescence, 48 h; stronger effect = higher value
In the case of C[C@H]1CN([C@@H](C)CO)C(=O)Cc2cc(NS(=O)(=O)c3ccc(Cl)cc3)ccc2O[C@@H]1CN(C)CC1CCCCC1, the max activity is reported as 4.91% (inactive).
With N#C[C@@H]1[C@@H](c2ccccc2)[C@H](CO)N1S(=O)(=O)c1ccc(-c2ccccc2)cc1 the max activity was -5.62% (inactive).
For C[C@@H]1CN([C@H](C)CO)C(=O)c2cc(NC(=O)Cc3cn(C)c4ccccc34)ccc2O[C@@H]1CN(C)Cc1ccc(C(=O)Nc2ccccc2N)cc1, the max activity was -0.539% (inactive).
For C[C@H](CO)N1C[C@H](C)[C@H](CN(C)Cc2ccc(C(=O)Nc3ccccc3N)cc2)Oc2ccc(NC(=O)Nc3cccc4ccccc34)cc2CC1=O, the max activity was -21.1% (inactive).
In the case of N#C[C@H]1[C@@H](c2ccc(-c3cccc(F)c3)cc2)[C@H](CO)N1C(=O)NC1CCCC1, the max activity is reported as 9.12% (inactive).
For CN(C)C(=O)c1cccc(-c2ccc([C@@H]3[C@@H](C#N)N(C(=O)C4CCCC4)[C@@H]3CO)cc2)c1, the max activity was -5.88% (inactive).
With N#C[C@@H]1[C@@H](c2ccccc2-c2cccc(F)c2)[C@H](CO)N1C(=O)NC1CCCC1 the max activity was 11.6% (inactive).
In the case of COc1ccc(-c2ccc([C@@H]3[C@@H](C#N)N(C(=O)NC4CCCC4)[C@H]3CO)cc2)cc1, the max activity is reported as 5.47% (inactive).
For N#C[C@@H]1[C@H](c2ccc(-c3cccc(F)c3)cc2)[C@H](CO)N1C(=O)NC1CCCC1, the max activity was -18.6% (inactive).
With C[C@@H]1CN([C@H](C)CO)C(=O)c2cccc(NC(=O)c3nc4ccccc4s3)c2O[C@@H]1CN(C)Cc1ccc(C(=O)Nc2ccccc2N)cc1 the max activity was -20.8% (inactive).
With C[C@H]1CN([C@@H](C)CO)C(=O)Cc2cc(NC(=O)CCCCCC(=O)Nc3ccccc3N)ccc2O[C@H]1CN(C)CC1CCCCC1 the max activity was 11.1% (inactive).
With CCS(=O)(=O)N1[C@H](C#N)[C@@H](c2ccc(-c3cccc(F)c3)cc2)[C@@H]1CO the max activity was -8.9% (inactive).
For N#C[C@@H]1[C@@H](c2ccccc2-c2ccc(F)cc2)[C@H](CO)N1C(=O)NC1CCCC1, the max activity was -6.02% (inactive).
In the case of O=C(C[C@H]1CC[C@@H]2[C@H](COC[C@H](O)CN2CCC(F)(F)F)O1)NCc1ccc(Oc2ccccc2)cc1, the max activity is reported as 9.67% (inactive).
With COc1ccc(C#Cc2cnc3c(c2)C(=O)N([C@H](C)CO)C[C@H](C)[C@@H](CN(C)C(=O)Nc2cccc(OC)c2)O3)cc1 the max activity was 8% (inactive).
For N#C[C@H]1[C@H](c2ccc(-c3cccc(F)c3)cc2)[C@@H](CO)N1C(=O)NC1CCCC1, the max activity was 1.15% (inactive).
In the case of N#C[C@H]1[C@H](c2ccc(C#Cc3ccc(F)cc3)cc2)[C@H](CO)N1c1nc(-c2ccccc2)cs1, the max activity is reported as 9.97% (inactive).
With O=C(C[C@H]1CC[C@@H]2[C@H](COC[C@@H](O)CN2Cc2ccc(Oc3ccccc3)cc2)O1)N1CCCCC1 the max activity was 14% (inactive).
For N#C[C@H]1[C@@H](c2ccc(-c3cccc(F)c3)cc2)[C@@H](CO)N1C(=O)NC1CCCC1, the max activity was -0.663% (inactive).
With C[C@H]1CN([C@@H](C)CO)C(=O)Cc2cc(NC(=O)CCCCCC(=O)Nc3ccccc3N)ccc2O[C@H]1CN(C)Cc1ccc(Oc2ccccc2)cc1 the max activity was -10.2% (inactive).
For COCC(=O)N1[C@H](C#N)[C@@H](c2ccc(-c3cccc(F)c3)cc2)[C@@H]1CO, the max activity was 6.18% (inactive).
For CC(C)=CCC/C(C)=C/CC/C(C)=C/CC/C(C)=C/CO, the max activity was 1.13% (inactive).
With N#C[C@@H]1[C@@H](c2ccc(C#CC3CCCC3)cc2)[C@H](CO)N1S(=O)(=O)c1ccccc1 the max activity was -8.85% (inactive).
With CCCNC(=O)N1[C@H](C#N)[C@@H](c2ccc(C3=CCCCC3)cc2)[C@@H]1CO the max activity was -7.65% (inactive).
For C[C@@H]1CN([C@H](C)CO)C(=O)c2cc(NC(=O)Nc3cccc4ccccc34)ccc2O[C@@H]1CN(C)Cc1ccc(C(=O)Nc2ccccc2N)cc1, the max activity was 13.3% (inactive).
With C[C@H](CO)N1C[C@H](C)[C@H](CN(C)Cc2ccc(C(=O)Nc3ccccc3N)cc2)Oc2ccc(N(C)C)cc2C1=O the max activity was -24.5% (inactive).
In the case of C[C@@H]1CN([C@@H](C)CO)C(=O)c2cc(NC(=O)Cc3cn(C)c4ccccc34)ccc2O[C@@H]1CN(C)Cc1ccc(C(=O)Nc2ccccc2N)cc1, the max activity is reported as 14.1% (inactive).
For C[C@H]1CN([C@@H](C)CO)C(=O)Cc2cc(NC(=O)Nc3cccc4ccccc34)ccc2O[C@H]1CN(C)Cc1ccc(C(=O)Nc2ccccc2N)cc1, the max activity was 10.8% (inactive).
In the case of N#C[C@@H]1[C@@H](c2ccc(C#Cc3cccnc3)cc2)[C@@H](CO)N1C(=O)C1CCCC1, the max activity is reported as -10.7% (inactive).
With N#C[C@@H]1[C@H](c2ccc(-c3cccc(F)c3)cc2)[C@@H](CO)N1C(=O)NC1CCCC1 the max activity was -0.345% (inactive).
For CN1C(=O)c2cc(NC(=O)c3ccc(F)c(F)c3)ccc2OC[C@H]2O[C@@H](CC(=O)Nc3ccc4c(c3)COC4)CC[C@@H]21, the max activity was 12.6% (inactive).
For COc1ccc(C#Cc2cnc3c(c2)C(=O)N([C@H](C)CO)C[C@H](C)[C@H](CN(C)Cc2ccccc2)O3)cc1OC, the max activity was 15.6% (inactive).
With CCCNC(=O)N1[C@@H](C#N)[C@@H](c2ccc(-c3ccccc3F)cc2)[C@@H]1CO the max activity was 6.49% (inactive).
With CCCNC(=O)N1[C@H](CO)[C@H](c2ccccc2)[C@@H]1C#N the max activity was -8.33% (inactive).
With C/C=C/c1ccc([C@H]2[C@@H](CO)N(C(=O)NC3CCCC3)[C@H]2C#N)cc1 the max activity was -3.18% (inactive).
With N#C[C@H]1[C@H](c2ccc(-c3cccc(F)c3)cc2)[C@H](CO)N1C(=O)NC1CCCC1 the max activity was -7.45% (inactive).
For N#C[C@H]1N[C@@H](CO)[C@@H]1c1ccc(-c2cccc(F)c2)cc1, the max activity was 7.67% (inactive).
For C[C@@H]1CN([C@@H](C)CO)C(=O)c2cc(NC(=O)Cc3cn(C)c4ccccc34)ccc2O[C@H]1CN(C)Cc1ccc(C(=O)Nc2ccccc2N)cc1, the max activity was -0.192% (inactive).
With N#C[C@@H]1[C@@H](c2ccc(C3=CCCCC3)cc2)[C@H](CO)N1C(=O)NC1CCCC1 the max activity was -9.58% (inactive).
With N#C[C@H]1[C@H](c2ccc(C#CCC3CCCC3)cc2)[C@@H](CO)N1C(=O)CN1CCOCC1 the max activity was -19% (inactive).
For C[C@@H]1CN([C@H](C)CO)C(=O)c2cccc(NC(=O)Nc3ccc4c(c3)OCO4)c2O[C@H]1CN(C)Cc1ccc(C(=O)Nc2ccccc2N)cc1, the max activity was -9.22% (inactive).
For C[C@H](CO)N1C[C@H](C)[C@H](CN(C)Cc2ccc(C(=O)Nc3ccccc3N)cc2)Oc2ccc(NC(=O)Cc3cn(C)c4ccccc34)cc2C1=O, the max activity was 12.2% (inactive).
In the case of C[C@H](CO)N1C[C@H](C)[C@H](CN(C)Cc2ccc(C(=O)Nc3ccccc3N)cc2)Oc2ccc(NC(=O)Nc3cccc4ccccc34)cc2C1=O, the max activity is reported as -0.211% (inactive).
With C[C@H](CO)N1C[C@H](C)[C@@H](CN(C)Cc2ccc(C(=O)Nc3ccccc3N)cc2)Oc2ccc(NC(=O)Cc3cn(C)c4ccccc34)cc2C1=O the max activity was -9.11% (inactive).
For CCCC#Cc1ccc([C@H]2[C@@H](C#N)N(S(=O)(=O)c3cccc(F)c3)[C@H]2CO)cc1, the max activity was 3.4% (inactive).
In the case of C[C@H]1CN([C@@H](C)CO)S(=O)(=O)c2ccc(C#CC3CC3)cc2O[C@H]1CN(C)C(=O)Nc1cc(F)ccc1F, the max activity is reported as -12.1% (inactive).
In the case of C[C@@H]1CN([C@H](C)CO)C(=O)c2cc(NC(=O)Cc3cn(C)c4ccccc34)ccc2O[C@H]1CN(C)Cc1ccc(C(=O)Nc2ccccc2N)cc1, the max activity is reported as 9.28% (inactive).
